Assay results published in ChEMBL document CHEMBL3758082, “Design, synthesis, and biological evaluation of crenatoside analogues as novel influenza neuraminidase inhibitors” (Eur J Med Chem, 2016).

target: Neuraminidase (Influenza A virus) (UniProt B4URF0); assay: Inhibition of Influenza A virus neuraminidase at 1000 ug/ml
Sequence (B4URF0 as listed by the source): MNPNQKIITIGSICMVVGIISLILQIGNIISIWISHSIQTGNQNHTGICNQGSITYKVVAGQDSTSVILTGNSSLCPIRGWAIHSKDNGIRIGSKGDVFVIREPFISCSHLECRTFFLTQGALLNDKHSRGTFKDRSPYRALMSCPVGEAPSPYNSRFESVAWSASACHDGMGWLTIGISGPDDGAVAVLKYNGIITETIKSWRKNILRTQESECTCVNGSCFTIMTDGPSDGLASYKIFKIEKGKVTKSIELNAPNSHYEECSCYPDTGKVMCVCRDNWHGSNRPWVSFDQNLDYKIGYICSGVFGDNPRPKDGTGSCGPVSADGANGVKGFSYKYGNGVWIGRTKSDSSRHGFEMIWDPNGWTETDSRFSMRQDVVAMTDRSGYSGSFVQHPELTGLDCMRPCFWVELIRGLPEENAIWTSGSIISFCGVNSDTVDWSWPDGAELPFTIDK

Going from `OC[C@H]1O[C@H]2OC[C@H](c3ccccc3)O[C@@H]2[C@@H](O)[C@@H]1O` to `OC[C@H]1O[C@H]2OC[C@@H](c3ccccc3)O[C@@H]2[C@@H](O)[C@@H]1O`, the inhibition rises from 3.9% to 16.8%.

Going from `COc1cccc(/C=C/C(=O)O[C@H]2[C@H](O)[C@@H](CO)O[C@H]3OC[C@@H](c4ccccc4)O[C@@H]32)c1` to `COc1cccc(/C=C/C(=O)O[C@H]2[C@H](O)[C@@H](CO)O[C@H]3OC[C@H](c4ccccc4)O[C@@H]32)c1`, the inhibition falls from 95.9% to 91.2%.

Going from `C[C@@H]1O[C@@H](O[C@H]2[C@H](O)[C@@H](COC(=O)/C=C/c3ccc(O)c(O)c3)O[C@H]3OC[C@H](c4ccc(O)c(O)c4)O[C@@H]32)[C@H](O)[C@H](O)[C@H]1O` [ISOCRENATOSIDE] to `C[C@@H]1O[C@@H](O[C@@H]2[C@H]3O[C@@H](c4ccc(O)c(O)c4)CO[C@@H]3O[C@H](CO)[C@H]2OC(=O)/C=C/c2ccc(O)c(O)c2)[C@H](O)[C@H](O)[C@H]1O` [CRENATOSIDE], the inhibition rises from 86.3% to 89.2%.

Going from `C[C@@H]1O[C@@H](O[C@H]2[C@H](O)[C@@H](CO)O[C@H]3OC[C@@H](c4ccccc4)O[C@@H]32)[C@H](O)[C@H](O)[C@H]1O` to `C[C@@H]1O[C@@H](O[C@H]2[C@H](O)[C@@H](CO)O[C@H]3OC[C@H](c4ccccc4)O[C@@H]32)[C@H](O)[C@H](O)[C@H]1O`, the inhibition falls from 11.7% to 8.28%.

First: O=C(/C=C/c1ccccc1)O[C@H]1[C@H](O)[C@@H](CO)O[C@H]2OC[C@H](c3ccccc3)O[C@@H]21
Second: O=C(/C=C/c1ccccc1)O[C@H]1[C@H](O)[C@@H](CO)O[C@H]2OC[C@@H](c3ccccc3)O[C@@H]21
The inhibition of the first is lower: 17.6% for the first, 29.8% for the second.

Compared with `CC(C)[C@@H](N)C(=O)O[C@H]1[C@H](O)[C@@H](CO)O[C@H]2OC[C@H](c3ccccc3)O[C@@H]21`, `CC(C)[C@@H](N)C(=O)O[C@H]1[C@H](O)[C@@H](CO)O[C@H]2OC[C@@H](c3ccccc3)O[C@@H]21` is higher in inhibition: 16.6% for the first, 25.3% for the second.

First: O=C(/C=C/c1ccc(O)cc1)O[C@H]1[C@H](O)[C@@H](CO)O[C@H]2OC[C@@H](c3ccccc3)O[C@@H]21
Second: O=C(/C=C/c1ccc(O)cc1)O[C@H]1[C@H](O)[C@@H](CO)O[C@H]2OC[C@H](c3ccccc3)O[C@@H]21
The inhibition of the first is higher: 66.7% for the first, 65% for the second.

Compared with `O=C(/C=C/c1ccc(O)c(O)c1)O[C@H]1[C@H](O)[C@@H](CO)O[C@H]2OC[C@H](c3ccccc3)O[C@@H]21`, `O=C(/C=C/c1ccc(O)c(O)c1)O[C@H]1[C@H](O)[C@@H](CO)O[C@H]2OC[C@@H](c3ccccc3)O[C@@H]21` is higher in inhibition: 94.1% for the first, 97.4% for the second.

First: CSCC[C@@H](N)C(=O)O[C@H]1[C@H](O)[C@@H](CO)O[C@H]2OC[C@@H](c3ccccc3)O[C@@H]21
Second: CSCC[C@@H](N)C(=O)O[C@H]1[C@H](O)[C@@H](CO)O[C@H]2OC[C@H](c3ccccc3)O[C@@H]21
The inhibition of the first is higher: 90.3% for the first, 88.8% for the second.

target: Neuraminidase (Influenza A virus, UniProt B4URF0); assay: Inhibition of Influenza A virus neuraminidase
Sequence (B4URF0 whole entry): as the sequence (B4URF0 as listed by the source) above

`COc1cccc(/C=C/C(=O)O[C@H]2[C@H](O)[C@@H](CO)O[C@H]3OC[C@@H](c4ccccc4)O[C@@H]32)c1` and `COc1cccc(/C=C/C(=O)O[C@H]2[C@H](O)[C@@H](CO)O[C@H]3OC[C@H](c4ccccc4)O[C@@H]32)c1` are within 1.5-fold of each other in IC50: 67 µM for the first, 97 µM for the second.

`C[C@@H]1O[C@@H](O[C@H]2[C@H](O)[C@@H](COC(=O)/C=C/c3ccc(O)c(O)c3)O[C@H]3OC[C@H](c4ccc(O)c(O)c4)O[C@@H]32)[C@H](O)[C@H](O)[C@H]1O` [ISOCRENATOSIDE] and `C[C@@H]1O[C@@H](O[C@@H]2[C@H]3O[C@@H](c4ccc(O)c(O)c4)CO[C@@H]3O[C@H](CO)[C@H]2OC(=O)/C=C/c2ccc(O)c(O)c2)[C@H](O)[C@H](O)[C@H]1O` [CRENATOSIDE] are within 1.5-fold of each other in IC50: 186 µM for the first, 144 µM for the second.

`O=C(/C=C/c1ccc(O)cc1)O[C@H]1[C@H](O)[C@@H](CO)O[C@H]2OC[C@@H](c3ccccc3)O[C@@H]21` and `O=C(/C=C/c1ccc(O)cc1)O[C@H]1[C@H](O)[C@@H](CO)O[C@H]2OC[C@H](c3ccccc3)O[C@@H]21` are within 1.5-fold of each other in IC50: 182 µM for the first, 229 µM for the second.

`O=C(/C=C/c1ccc(O)c(O)c1)O[C@H]1[C@H](O)[C@@H](CO)O[C@H]2OC[C@H](c3ccccc3)O[C@@H]21` and `O=C(/C=C/c1ccc(O)c(O)c1)O[C@H]1[C@H](O)[C@@H](CO)O[C@H]2OC[C@@H](c3ccccc3)O[C@@H]21` are within 1.5-fold of each other in IC50: 67.3 µM for the first, 62.5 µM for the second.

`CSCC[C@@H](N)C(=O)O[C@H]1[C@H](O)[C@@H](CO)O[C@H]2OC[C@@H](c3ccccc3)O[C@@H]21` and `CSCC[C@@H](N)C(=O)O[C@H]1[C@H](O)[C@@H](CO)O[C@H]2OC[C@H](c3ccccc3)O[C@@H]21` are within 1.5-fold of each other in IC50: 189 µM for the first, 216 µM for the second.
